Source: US8592161B2, “Mutational profiles in HIV-1 protease correlated with phenotypic drug resistance” (Janssen R&D Ireland, priority 2002, dated 2013)
Like-named read-outs stand apart in the source and are kept apart here.

Columns and labels:
Type in all cases: cell-based
[1] = test system: HIV-1/LAI strain selected with Compound 1 (100 nM, 97 days), protease R41T K70E; test: In vitro antiviral activity in acutely infected MT4 cells, selected strain; conditions: for EC50: Human immunodeficiency virus 1, Table 1, strain R41T K70E (Compound 1 100 nM, 97 days), read-out: median EC50; for median FC (fold change in EC50 as compared to wild type): Table 1, strain R41T K70E (Compound 1 100 nM, 97 days)
Procedure: (§1) Determination of the antiviral activity of a compound was done as described in Pauwels R. et al. (J Virol Methods 1988; 20(4):309-21). Various concentrations of the test compounds were brought into each well of a flat-bottom microtiter plate. Subsequently, HIV and MT4 cells were added to a final concentration of 200-250 50% cell culture infectious doses (CCID50)/well and 30,000 cells/well, respectively. After 5 days of incubation (37° C., 5% CO2), the cytopathic effect of the replicating virus was determined by the tetrazolium colorimetric MTT method. The dose protecting 50% of the cells from virus cytopathic effect was defined as the EC50, while the dose achieving 90% protection was defined as the EC90.
(§2) MT4-LTR-EGFP cells were infected at a multiplicity of infection (MOI) of 0.01 to 0.001 CCID50/cell in the presence of inhibitor. The starting concentration of the inhibitor was two to tee times the EC50, a suboptimal concentration. The cultures were sub-cultivated and scored microscopically on virus-induced fluorescence and cytopathicity every 3-4 days. […] The escaping virus was further cultivated in the presence of the same inhibitor concentration in order to enrich the population in resistant variants. If full virus breakthrough was observed the supernatant was collected and stored (new virus strain). […] From the new viruses, a virus stock was grown in the absence of inhibitor.

[2] = test system: HIV-1/LAI strain selected with Compound 2 (100 nM), protease R41I; test: as above; conditions: Human immunodeficiency virus 1, Table 3, R41I strain selected with Compound 2 100 nM (head lists 116, 200, 264 days; assignment unclear), read-out: median EC50
Procedure: as §1, §2

[3] = test system: HIV-1 starting strain of Table 4 (no compound, no mutations); test: In vitro antiviral activity in acutely infected MT4 cells, starting strain; conditions: for EC50: Human immunodeficiency virus 1, starting strain HIV-1, no compound, read-out: median EC50; for median FC (fold change in EC50 as compared to wild type): starting strain HIV-1, no compound
Procedure: as §1
(§3) MT4-LTR-EGFP cells were infected at a multiplicity of infection (MOI) of 0.01 to 0.001 CCID50/cell in the presence of inhibitor. The starting concentration of the inhibitor was two to tee times the EC50, a suboptimal concentration. The cultures were sub-cultivated and scored microscopically on virus-induced fluorescence and cytopathicity every 3-4 days. The cultures were sub-cultivated in the presence of the same compound concentration until signs of virus replication were observed. The escaping virus was further cultivated in the presence of the same inhibitor concentration in order to enrich the population in resistant variants. If full virus breakthrough was observed the supernatant was collected and stored (new virus strain). Afterwards, the same virus was challenged with a higher compound concentration in order to select variants able to grow in the presence of as high as possible inhibitor concentrations. From the new viruses, a virus stock was grown in the absence of inhibitor.
(§4) In vitro drug selection experiments starting from wild-type HIV-1 under pressure of compound 1, compound 2, and Nelfinavir (NFV) have been performed. Tables 1, 2, 3, 4, and 5 show the genotypic and phenotypic characterization of the selected strains.

[4] = test system: HIV-1/LAI; test: In vitro antiviral activity in acutely infected MT4 cells, wild type; conditions: read-out: median EC50
Procedure: as §1, §3, §4

[5] = test system: HIV-1/LAI strain selected with NFV (9000 nM, 11l days), protease L10F D30N R41R/K K45I/K M46I V77I I84V/I I85V/I N88D; test: In vitro antiviral activity in acutely infected MT4 cells, selected strain; conditions: for EC50: Human immunodeficiency virus 1, Table 5, strain L10F D30N R41R/K K45I/K M46I V77I I84V/I I85V/I N88D (NFV 9000 nM, 11l days), read-out: median EC50; for median FC (fold change in EC50 as compared to wild type): Table 5, strain L10F D30N R41R/K K45I/K M46I V77I I84V/I I85V/I N88D (NFV 9000 nM, 11l days)
Procedure: as §1, §3, §4

[6] = test system: HIV-1/LAI strain selected with NFV (9000 nM, 140 days), protease L10F D30N R41R/K K45I/K M46I V77I I84V N88D; test: as above; conditions: for EC50: Human immunodeficiency virus 1, Table 5, strain L10F D30N R41R/K K45I/K M46I V77I I84V N88D (NFV 9000 nM, 140 days), read-out: median EC50; for median FC (fold change in EC50 as compared to wild type): Table 5, strain L10F D30N R41R/K K45I/K M46I V77I I84V N88D (NFV 9000 nM, 140 days)
Procedure: as §1, §3, §4

[7] = test system: HIV-1/LAI strain selected with Comp 1 (100 nM, 195 days), protease S37N R41S K70E; test: as above; conditions: for EC50: Human immunodeficiency virus 1, Table 2, strain S37N R41S K70E (Comp 1 100 nM, 195 days), read-out: median EC50; for median FC (fold change in EC50 as compared to wild type): Table 2, strain S37N R41S K70E (Comp 1 100 nM, 195 days)
Procedure: as §1, §3, §4

[8] = test system: HIV-1/LAI strain selected with Compound 1 (30 nM, 45 days), protease R41T; test: as above; conditions: for EC50: Human immunodeficiency virus 1, Table 1, strain R41T (Compound 1 30 nM, 45 days), read-out: median EC50; for median FC (fold change in EC50 as compared to wild type): Table 1, strain R41T (Compound 1 30 nM, 45 days)
Procedure: as §1, §3, §4

[9] = test system: HIV-1 strain selected with Comp 1 (40 nM, 161 days), protease R41G V82I; test: as above; conditions: for EC50: Human immunodeficiency virus 1, Table 4, strain R41G V82I (Comp 1 40 nM, 161 days), read-out: median EC50; for median FC (fold change in EC50 as compared to wild type): Table 4, strain R41G V82I (Comp 1 40 nM, 161 days)
Procedure: as §1, §3, §4

[10] = test system: HIV-1/LAI strain selected with Comp 1 (30 nM, 70 days), protease K70E; test: as above; conditions: for EC50: Human immunodeficiency virus 1, Table 2, strain K70E (Comp 1 30 nM, 70 days), read-out: median EC50; for median FC (fold change in EC50 as compared to wild type): Table 2, strain K70E (Comp 1 30 nM, 70 days)
Procedure: as §1, §3, §4

[11] = test system: HIV-1/LAI strain selected with Compound 1 (100 nM, 188 days), protease R41T K70E; test: as above; conditions: for EC50: Human immunodeficiency virus 1, Table 1, strain R41T K70E (Compound 1 100 nM, 188 days), read-out: median EC50; for median FC (fold change in EC50 as compared to wild type): Table 1, strain R41T K70E (Compound 1 100 nM, 188 days)
Procedure: as §1, §3, §4

[12] = test system: HIV-1 strain selected with Comp 1 (20 nM, 94 days), protease R41G/R V82V/I; test: as above; conditions: for EC50: Human immunodeficiency virus 1, Table 4, strain R41G/R V82V/I (Comp 1 20 nM, 94 days), read-out: median EC50; for median FC (fold change in EC50 as compared to wild type): Table 4, strain R41G/R V82V/I (Comp 1 20 nM, 94 days)
Procedure: as §1, §3, §4

[13] = Human immunodeficiency virus 1, MT4, Table 1, wild-type HIV/LAI
[14] = Human immunodeficiency virus 1, MT4, Table 2, wild-type HIV-1/LAI
[15] = Human immunodeficiency virus 1, MT4, Table 3, wild-type HIV-1/LAI
[16] = Human immunodeficiency virus 1, MT4, Table 4, wild-type HIV-1/LAI
[17] = Human immunodeficiency virus 1, MT4, Table 5, wild-type HIV-1/LAI

Structure (SMILES) | EC50 [1] | median FC (fold change in EC50 as compared to wild type) [1] | EC50 [2] | EC50 [3] | median FC (fold change in EC50 as compared to wild type) [3] | EC50 [4, 13] | EC50 [4, 14] | EC50 [4, 15] | EC50 [4, 16] | EC50 [4, 17] | EC50 [5] | median FC (fold change in EC50 as compared to wild type) [5] | EC50 [6] | median FC (fold change in EC50 as compared to wild type) [6] | EC50 [7] | median FC (fold change in EC50 as compared to wild type) [7] | EC50 [8] | median FC (fold change in EC50 as compared to wild type) [8] | EC50 [9] | median FC (fold change in EC50 as compared to wild type) [9] | also measured
CC(C)CN(C[C@@H](O)[C@H](Cc1ccccc1)NC(=O)O[C@H]1CCOC1)S(=O)(=O)c1ccc(N)cc1 [Amprenavir] | 29 nM | 1 | 8.4 nM | 26 nM | 1 | 36 nM | 20 nM | 20 nM | 20 nM | 20 nM | 95 nM | 5 | 190 nM | 10 | 14 nM | 1 | 38 nM | 1 | 6.6 nM | 0 | EC50 [10]: 56 nM; median FC (fold change in EC50 as compared to wild type) [10]: 3; EC50 [11]: 39 nM; median FC (fold change in EC50 as compared to wild type) [11]: 1; EC50 [12]: 7.3 nM; median FC (fold change in EC50 as compared to wild type) [12]: 0
CC(C)(C)NC(=O)[C@@H]1CN(Cc2cccnc2)CCN1C[C@@H](O)C[C@@H](Cc1ccccc1)C(=O)N[C@H]1c2ccccc2C[C@H]1O [Indinavir] | 98 nM | 4 | 47 nM | 2.4 nM | 0 | 28 nM | 12 nM | 12 nM | 12 nM | 12 nM | 100 nM | 8 | 28 nM | 2 | 9.1 nM | 1 | 33 nM | 1 | 2.1 nM | 0 | EC50 [10]: 18 nM; median FC (fold change in EC50 as compared to wild type) [10]: 2; EC50 [11]: 140 nM; median FC (fold change in EC50 as compared to wild type) [11]: 5; EC50 [12]: 3.1 nM; median FC (fold change in EC50 as compared to wild type) [12]: 0
Cc1c(O)cccc1C(=O)N[C@@H](CSc1ccccc1)[C@H](O)CN1C[C@H]2CCCC[C@H]2C[C@H]1C(=O)NC(C)(C)C [Nelfinavir] | 18 nM | 1 | 14 nM | 31 nM | 1 | 30 nM | 38 nM | 38 nM | 38 nM | 38 nM | 7200 nM | 200 | 6800 nM | 200 | 9.5 nM | 0.3 | 32 nM | 1 | 11 nM | 0 | EC50 [10]: 39 nM; median FC (fold change in EC50 as compared to wild type) [10]: 1; EC50 [11]: 37 nM; median FC (fold change in EC50 as compared to wild type) [11]: 1; EC50 [12]: 5.7 nM; median FC (fold change in EC50 as compared to wild type) [12]: 0
